This is an account of results in ChEMBL document CHEMBL1153387 (J Med Chem, 2009).

SMILES strings stand for the structures. Active and inactive are the calls of the source. The calls are words filed in the database; no cut-off is given here. Non-standard residues stand in square brackets, D forms with d. Residues, ends and D or L forms follow the SMILES beside them. *: point of attachment. X1 = [N-]=[N+]=N[C@@H](CCCNC(=N)N)C(=O)*; X2 = [N-]=[N+]=N[C@@H](CCCCN)CC(=O)*; NMeR = CN[C@@H](CCCNC(=N)N)C(=O)O; Tle = CC(C)(C)[C@H](N)C(=O)O; X3 = C[C@](N)(CCCCN)CC(=O)*; β3hK = NCCCC[C@H](N)CC(=O)O

For series [1], the system named is Rattus norvegicus. Description: Hypothermic activity in Sprague-Dawley rat assessed as decrease in core body temperature at 5 mg/kg, ip at time of maximal body temperature decrease. As to conditions: route intraperitoneal. It counts as functional.
The subject of series [2] is Rattus norvegicus. Nature of the series: Hypothermic activity in Sprague-Dawley rat assessed as time duration of maximal body temperature decrease at 5 mg/kg, ip. It counts as functional. Particulars: route intraperitoneal.
Series [3] in a line: Metabolic stability in rat serum assessed as half time of disappearance at 1 mM by MALDI-TOF mass spectrometry assay. In kind it is ADME, cell-free. As to conditions: read-out: T50.
Series [4] deals with T1, Neurotensin receptor type 1 (Homo sapiens, UniProt P30989). Nature of the series: Agonist activity at NTR1 in human HT-29 cells assessed as increase in intracellular calcium concentration by FLIPR assay. It counts as functional, cell-based. A general note: Calcium assays in cells follow changes in intracellular calcium, usually with a dye or a luminescent sensor.
T1 sequence (P30989 whole entry): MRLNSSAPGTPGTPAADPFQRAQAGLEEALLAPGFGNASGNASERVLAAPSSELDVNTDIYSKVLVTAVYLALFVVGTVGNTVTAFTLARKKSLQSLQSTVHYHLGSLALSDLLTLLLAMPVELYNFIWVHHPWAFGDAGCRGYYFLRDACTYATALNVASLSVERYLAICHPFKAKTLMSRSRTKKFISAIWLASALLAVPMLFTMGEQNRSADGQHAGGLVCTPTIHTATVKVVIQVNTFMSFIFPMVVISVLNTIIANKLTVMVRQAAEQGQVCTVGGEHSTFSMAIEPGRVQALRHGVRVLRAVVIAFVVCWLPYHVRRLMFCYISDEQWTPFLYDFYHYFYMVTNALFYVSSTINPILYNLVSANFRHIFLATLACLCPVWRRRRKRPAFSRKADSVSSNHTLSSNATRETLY
Series [5] concerns the target T1, Neurotensin receptor type 1. Description: Binding affinity to human NTR1.
Series [6] can be described thus: Metabolic stability in human serum assessed as half time of disappearance at 1 mM by MALDI-TOF mass spectrometry assay. In kind it is ADME, cell-free. Particulars: read-out: T50.
Series [7] deals with Serum. Nature of the series: Metabolic stability in rat serum assessed as compound degradation rate at 1 mM by MALDI-TOF mass spectrometry assay. It counts as ADME, cell-free. Particulars: 1000 µM.
The test system of series [8] is Serum. Description: Metabolic stability in human serum assessed as compound degradation rate at 1 mM by MALDI-TOF mass spectrometry assay. In kind it is ADME, cell-free. Particulars: 1000 µM.
In series [9] the target is T1, Neurotensin receptor type 1. Description: Displacement of [125I]I-Tyr(3)NT from human NTR1. Background: In a radioligand displacement assay an active substance lowers the binding of a labelled ligand.
Series [10] has the same target. Nature of the series: Agonist activity at NTR1 in human HT-29 cells assessed as increase in intracellular calcium concentration in presence of NTR1 antagonist SR-48692 by FLIPR assay. In kind it is functional, cell-based.
Series [11] relates to Rattus norvegicus. Description: Hypothermic activity in Sprague-Dawley rat assessed as decrease in core body temperature at 5 mg/kg, ip measured up to 150 mins. Also noted: dose 5 mg/kg. It counts as functional, organism-based.

For the compound `CN[C@@H](CCCNC(=N)N)C(=O)N[C@@H](CCCCN)C(=O)N1CCC[C@H]1C(=O)N[C@@H](Cc1c[nH]c2ccccc12)C(=O)N[C@H](C(=O)N[C@@H](CC(C)C)C(=O)O)C(C)(C)C` (H-[NMeR]KPW[Tle]L-OH), the Activity in the series with Rattus norvegicus [1] is -5.52 °C; in the series with Serum [7] it was 0.052 µmol/min; in the series on Serum [8], 0.068 µmol/min. The Time with Rattus norvegicus [2] is on record as 270 min. Also, the results for the half-life at 1000 µM in series [3] and in [6] were 162 h and 123 h, respectively. In addition, in [4], the concentration for a half-maximal effect (EC50) stood at 200 nM. Also, the values for the inhibition constant Ki in series [5] and in series [9] were 95 nM and 180 nM, respectively. The compound further registered an IC50 in [9] of 240 nM.
Take `CC(C)C[C@H](NC(=O)[C@@H](NC(=O)[C@H](Cc1ccc(O)cc1)NC(=O)[C@@H]1CCCN1C(=O)[C@H](CCCNC(=N)N)NC(=O)C[C@@H](N)CCCCN)C(C)(C)C)C(=O)O` (H-[β3hK]RPY[Tle]L-OH): the Activity in the series on Rattus norvegicus [1] was -1.53 °C; with Serum [7] it was 39.9 µmol/min; with Serum [8], 33.4 µmol/min. The Time in the series on Rattus norvegicus [2] turned out to be 90 min. Also, the outcome in series [10] was inactive. In addition, the half-life at 1000 µM is 0.21 h in [3] and 0.25 h in series [6]. The concentration giving a half-maximal response (EC50) in [4] was determined as 6.21 nM. For the same compound, in series [9], the half-maximal inhibitory concentration (IC50) was 10.8 nM. In series [9], this compound had a Ki of 8.07 nM.
Take `CC(C)C[C@H](NC(=O)[C@@H](NC(=O)[C@H](Cc1c[nH]c2ccccc12)NC(=O)[C@@H]1CCCN1C(=O)[C@H](CCCCN)NC(=O)[C@H](CCCNC(=N)N)N=[N+]=[N-])C(C)(C)C)C(=O)O` (X1-KPW[Tle]L-OH): the results for the Activity in the series on Rattus norvegicus [1], in the series with Serum [7] and in the series with Serum [8] were -4.29 °C, 0.123 µmol/min and 0.07 µmol/min, respectively. In the series on Rattus norvegicus [2], the Time came out at 240 min. The outcome in series [10] was inactive. Besides, the half-life at 1000 µM in series [3] amounted to 67.8 h; in series [6], 120 h. In [4], the EC50 came to 151 nM. The compound further gave an IC50 in [9] of 140 nM. This compound also had an inhibition constant (Ki) in series [9] of 105 nM.
Consider `CC(C)C[C@H](NC(=O)[C@@H](NC(=O)[C@H](Cc1ccc(O)cc1)NC(=O)[C@@H]1CCCN1C(=O)[C@H](CCCNC(=N)N)NC(=O)C[C@H](CCCCN)N=[N+]=[N-])C(C)(C)C)C(=O)O` (X2-RPY[Tle]L-OH), for which the Activity in the series with Rattus norvegicus [1] is -2.57 °C; in the series with Serum [7] it was 0.16 µmol/min; in the series on Serum [8] it was 0.133 µmol/min. In addition, in the series on Rattus norvegicus [2], the Time is 120 min. Moreover, the half-life at 1000 µM in series [3] was 52 h; in series [6], 62.7 h. In addition, the EC50 in [4] was 7.28 nM. Besides, the inhibition constant (Ki) in [5] worked out at 4.5 nM; in series [9], 5.49 nM. The IC50 in series [9] came out at 7.32 nM.
Regarding `CC(C)C[C@H](NC(=O)[C@@H](NC(=O)[C@H](Cc1ccc(O)cc1)NC(=O)[C@@H]1CCCN1C(=O)[C@H](CCCNC(=N)N)NC(=O)C[C@@](C)(N)CCCCN)C(C)(C)C)C(=O)O` (X3-RPY[Tle]L-OH), the values for the Activity in the series on Rattus norvegicus [1], in the series on Serum [7] and in the series with Serum [8] were -2.13 °C, 0.166 µmol/min and 0.194 µmol/min, respectively. In the series on Rattus norvegicus [2], the Time came out at 150 min. For the same compound, the half-life at 1000 µM in [3] turned out to be 49.7 h; in series [6], 42.8 h. Besides, the concentration for a half-maximal effect (EC50) in series [4] turned out to be 6.44 nM. Besides, the Ki in series [5] amounted to 9.9 nM; in series [9], 10.4 nM. In [9], the IC50 is 13.9 nM.
For the compound `O=C(CCCN1CCC(O)(c2ccc(Cl)cc2)CC1)c1ccc(F)cc1` [HALOPERIDOL], the Activity in the series on Rattus norvegicus [1] was -1.34 °C. In addition, in the series with Rattus norvegicus [2], the Time was 90 min. Besides, the result in the series on Rattus norvegicus [11] was Active.

Usually EC50 stands for the concentration that produces a half-maximal response. A word on the Ki: it is the dissociation constant of the complex between target and ligand, obtained from inhibition or displacement. Read a low Ki as tighter binding. In general, IC50 refers to the point on the concentration scale where inhibition reaches its midpoint.
